≈ marks a conversion by molar mass, not a printed value. Read-outs that look alike come from different tables or passages of the source.

The test system of data set [1] is Helicobacter pylori (ATCC43504). Put plainly: MIC and MBC by microdilution method according to CLSI guideline. The class given is cell-based. The note with it: ATCC43504, 72 h. The method, then:
Helicobacter pylori (ATCC43504): Type strain for antibiotic susceptibility testing according to the Clinical & Laboratory Standards Institute (CLSI) guidelines.
(§1) The medium was prepared using Müller-Hinton broth (MH, Difco Inc., Sparks, MD, USA) [w/7% […] (Sigma CO., LTD., St. Louis, USA), 0.4% isovitalex (BBL Inc., Sparks, MD, USA)].
(§2) An antibiotic susceptibility testing was performed using the microdilution method according to the CLSI guideline. Two-fold serial dilution was performed in 12 steps in a 48-well plate with the highest concentration of 128 µg/mL for amocixillin and clarithromycin and 256 µg/mL for omeprazole. The bacteria were inoculated into wells containing only medium without antibiotics to prepare the positive control group, and the wells containing only medium without antibiotics or inoculated bacteria were used as the negative control group. The concentration range of the test substances, zastaprazan (JP-1366) and fexuprazan, was determined through preliminary experiments. H. pylori stored in a deep freezer (-70 °C or lower) was thawed, inoculated onto BHI agar (w/7% laked horse blood and 0.4% isovitalex), cultured at 37 °C under microaerobic conditions of 5% O2, 10% CO2, and 85% N2 gas for three days, and then subcultured onto a fresh medium. The cultured bacteria were harvested, suspended in PBS, inoculated into each well at a concentration of 5 x 10^5 CFU/mL, and then cultured at 37 °C under microaerobic conditions of 5% O2, 10% CO2, and 85% N2 gas for three days. The lowest concentration at which no bacterial growth was observed was determined as the MIC. Thereafter, 10 µL of the culture solution from each well at different concentrations was spotted onto BHI agar (w/7% laked horse blood and 0.4% isovitalex) containing no antibiotics and cultured for three days at 37 °C under microaerobic conditions. The lowest concentration at which no bacteria growth occurred was determined as the MBC.
To determine the MBC, 10 µl of the culture solution from each well was spotted on a solid medium containing no antibiotics or test substances after the MIC determination, and bacterial growth was examined.
(§3) All tests were performed in duplicate, and the results were determined by conducting the experiments in triplicate.
(In broth dilution the organism is exposed to a series of concentrations in liquid medium.)

The subject of data set [2] is Helicobacter pylori SS1 (mouse colonizing strain). Described as above. The class given is cell-based. The settings on record: 72 h, 3 days; for MBC: spotted on antibiotic-free BHI agar, unit from method b141/b236, table prints none. As for the experimental part:
Helicobacter pylori SS1 (mouse colonizing strain): A strain known as Sydney strain. The strain is CagA-positive and VacA-positive and has been confirmed to infect and colonize in C57BL/6 mice. The strain is used in animal testing.
as §1
as §2, with “Thereafter, 10 µL of the culture solution from each well at different concentrations was spotted onto BHI agar (w/7% laked horse blood and 0.4% isovitalex) containing no antibiotics and cultured for three days at 37 °C under microaerobic conditions.” left out, “MBC. […]” for “MBC.”
as §3

In data set [3] the test system is Helicobacter pylori 26695 (ATCC700329). The data set is described as above. The class given is cell-based. The note with it: ATCC700329, 72 h. As for the experimental part: Helicobacter pylori 26695 (ATCC700329): A strain isolated from a patient known to be associated with the development of gastric cancer. The strain is cytotoxin associated gene (CagA)-positive and vacuolating cytotoxin (VacA)-positive and has a well-known genetic background, so it is mainly used for research purposes.
as §1
An antibiotic susceptibility testing was performed using the microdilution method according to the CLSI guideline. […] The concentration range of the test substances, zastaprazan (JP-1366) and fexuprazan, was determined through preliminary experiments. […] The lowest concentration at which no bacterial growth was observed was determined as the MIC. […] The lowest concentration at which no bacteria growth occurred was determined as the MBC.
To determine the MIC, visual inspection was performed and the absorbance was measured at 600 nm, and the growth was confirmed based on the absorbance of the negative control group containing only the medium. […]
as §3

The subject of data set [4] is Helicobacter pylori SS1 (mouse colonizing strain). As to the kind of experiment: Clarithromycin MIC and MBC by microdilution with or without JP-1366 in the medium. It is filed as cell-based. The note with it: medium containing zastaprazan (JP1366) at 1/2 MIC concentration vs MH medium. As for the experimental part:
Helicobacter pylori SS1 (mouse colonizing strain): Known as Sydney strain, the strain is CagA-positive and VacA-positive, and has been confirmed to colonize mice C57BL/6 and is used in animal experiments.
Zastaprazan (JP-1366) was supplied as a product prepared at a concentration of 10 mM in dimethyl sulfoxide (DMSO) solvent, and clarithromycin was prepared at a concentration of 5 mg/mL in DMSO solvent.
An antibiotic susceptibility test was performed by the microdilution method according to CLSI guideline.
The antibiotic susceptibility test was performed using MH broth (7% horse serum, 0.4% IsoVitalex), and the susceptibility test medium for zastaprazan (JP-1366) was prepared at this time. […] Using the medium prepared in this way, clarithromycin was serially diluted 2-fold and in 16 steps, with a maximum concentration of 16 µg/mL. Wells containing only the medium without antibiotics were used as a negative control group, and wells inoculated only with the bacteria in the medium without antibiotics were used as a positive control group. […] The lowest concentration of the sample at which no bacterial growth was observed was determined as the MIC. […] The lowest concentration at which no bacterial growth was observed was determined as the minimum bactericidal concentration(MBC). […]

A short description of data set [5]: Solubility observed during MIC analysis. The class given is physicochemical. The settings on record: in MIC medium; formation of suspension, interference in visual/absorbance analysis. An excerpt:
Referring to Table 4 below, since the solubility of zastaprazan (JP-1366) was low, the MIC analysis was difficult (poor solubility, formation of suspension, interference in visual/absorbance analysis), so the inhibitory effect on the H. pylori strains was confirmed through the MBC index.

For data set [6], the system named is patients with erosive gastroesophageal reflux disease. Put plainly: Phase 2 clinical trial, healing of mucosal breaks and symptom assessment. The class given is in vivo, human. The note with it: within 24 hours and for seven days after administration; subject diary. As for the experimental part: H. pylori testing was performed by 13C-urea breath test (13C-UBT), gastroscopy (Campylobacter-like organism test, CLO), or tissue biopsy to confirm H. pylori positivity/negativity. […] This clinical trial was a randomized, double-blind, active-controlled, multicenter, phase 2 clinical trial targeting patients with erosive gastroesophageal reflux disease. After the subjects gave written consent to participate in the clinical trial, a screening test was conducted. […] At this time, the subjects were stratified by grade (A, B, C, D) according to the LA classification system classified by upper gastrointestinal endoscopy. Randomly assigned subjects took the clinical trial drug once a day according to the assigned administration group for four weeks. After four weeks of administration of the clinical trial drug, the subjects visited the clinical trial institution to undergo an upper gastrointestinal endoscopy to assess whether they were healed. Healed subjects underwent a Safety Follow-Up (F/U) two weeks later, and unhealed subjects were administered the clinical trial drug for additional four weeks (a total of 8 weeks of administration) and visited the clinical trial institution to undergo an upper gastrointestinal endoscopy. […]

`CC1(C)S[C@@H]2[C@H](NC(=O)[C@H](N)c3ccc(O)cc3)C(=O)N2[C@H]1C(=O)O` [Amoxicillin, Amoxicillin Trihydrate]: the minimal bactericidal concentration (MBC) (in general, the lowest tested concentration that kills the bacteria rather than only halting them) amounted to 0.032 mg/L in data set [1] (strain 43504, spotted on antibiotic-free BHI agar, 3 days, unit from method b141/b236, table prints none, read-out: MBC); 0.25 mg/L in data set [2]; 0.032 mg/L in data set [3] (strain 26695, spotted on antibiotic-free BHI agar, 3 days, unit from method b141/b236, table prints none, read-out: MBC).
As for `CC[C@H]1OC(=O)[C@H](C)[C@@H](O[C@H]2C[C@@](C)(OC)[C@@H](O)[C@H](C)O2)[C@H](C)[C@@H](O[C@@H]2O[C@H](C)C[C@H](N(C)C)[C@H]2O)[C@](C)(OC)C[C@@H](C)C(=O)[C@H](C)[C@@H](O)[C@]1(C)O` [Clarithromycin], the minimum bactericidal concentration (MBC) in data set [1] amounted to 0.063 mg/L (≈ 0.0842 µM); in data set [2], 0.125 mg/L (≈ 0.167 µM); in data set [3] it was 0.125 mg/L (≈ 0.167 µM). Moreover, the MIC (in general, the least concentration at which growth counts as inhibited) in data set [1] was 0.032 mg/L (≈ 0.0428 µM); in data set [2] (37 °C, microaerobic, unit from method b141, table prints none), 0.032 mg/L (≈ 0.0428 µM). In addition, in data set [4], the “MBC lowered by” value is “about 1/2”.
On to `Cc1cccc(C)c1CNc1cc(C(=O)N2CCC2)cn2c(C)c(C)nc12.O=C(O)CC(O)(CC(=O)O)C(=O)O` [JP-1366, azetidin-1-yl{8-[(2,6-dimethylbenzyl)amino]-2,3-dimethylimidazo[1,2-a]pyridin-6-yl}methanone citrate salt], for which, in data set [5], the solubility result was “low”. For the same compound, the “evaluation of all symptoms (heartburn, acid reflux, heartburn/acid reflux)” value in data set [6] is “all symptoms tended to be ameliorated”.
As to `COc1ccc2[nH]c([S+]([O-])Cc3ncc(C)c(OC)c3C)nc2c1` (stereo not shown) [Omeprazole], in data set [1], the minimum bactericidal concentration (MBC) is 64 mg/L (≈ 185 µM) and the MIC was determined as 32 mg/L (≈ 92.6 µM).

(Values after EP4628081A1, “COMPOSITION FOR REMOVING HELICOBACTER PYLORI COMPRISING ZASTAPRAZAN OR PHARMACEUTICALLY ACCEPTABLE SALT THEREOF” (priority 2022, dated 2024).)
